Results published in ChEMBL document CHEMBL1944581, “Synthesis and characterization of fluorinated homocysteine derivatives as potential molecular probes for ¹⁹F magnetic resonance spectroscopy and imaging” (Bioorg Med Chem Lett, 2011).

Assays:
Format in all cases: ADME
[1] = biological target: T1, Albumin (Homo sapiens, UniProt P02768); assay: Binding affinity to human serum albumin in phosphate buffer assessed as N-homocysteinylation of protein by MALDI-TOF scpectroscopy; conditions: isolated protein
T1 sequence (P02768 whole entry): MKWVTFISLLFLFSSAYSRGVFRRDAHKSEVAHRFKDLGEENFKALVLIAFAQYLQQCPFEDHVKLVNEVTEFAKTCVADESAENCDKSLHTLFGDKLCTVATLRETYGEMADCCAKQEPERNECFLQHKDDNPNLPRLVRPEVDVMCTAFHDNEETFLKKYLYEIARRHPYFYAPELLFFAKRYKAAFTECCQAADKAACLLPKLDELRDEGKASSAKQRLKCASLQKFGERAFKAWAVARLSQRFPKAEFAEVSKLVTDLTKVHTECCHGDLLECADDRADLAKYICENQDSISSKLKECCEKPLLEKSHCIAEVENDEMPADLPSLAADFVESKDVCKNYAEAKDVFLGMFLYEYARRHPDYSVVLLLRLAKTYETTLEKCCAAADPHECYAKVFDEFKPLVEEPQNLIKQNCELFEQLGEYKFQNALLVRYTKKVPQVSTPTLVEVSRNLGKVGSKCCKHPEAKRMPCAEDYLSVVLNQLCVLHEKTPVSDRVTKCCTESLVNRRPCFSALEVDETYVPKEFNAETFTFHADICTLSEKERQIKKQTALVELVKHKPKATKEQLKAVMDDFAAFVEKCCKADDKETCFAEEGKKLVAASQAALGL

[2] = biological target: T1, Albumin; assay: Binding affinity to human serum albumin in phosphate buffer assessed as N-homocysteinylation of protein at 6.2 mM at pH 7.43 at 37 degC after 18 hrs by SDS-PAGE-based 19F-NMR spectroscopy; conditions: isolated protein, pH 7.43, 18 h, 6200 µM
[3] = biological target: T1, Albumin; assay: Binding affinity to human serum albumin in human plasma assessed as protein N-homocysteinylation level at 37 degC for 27 hrs by SDS-PAGE-based 19F-NMR spectroscopy

Measured: Activity

O=C1SCCC1NC(=O)C(F)(F)F (stereo not drawn)
Active: all assays above
